According to article PMC4681344, “Selective targeting of the BRG/PB1 bromodomains impairs embryonic and trophoblast stem cell maintenance” (Science Advances, 2015):

Columns and labels:
[1] = target: T1, fifth bromodomain of PB1 [PB1(5)] (Homo sapiens, UniProt Q86U86); assay: Isothermal titration calorimetry (ITC) of SA; type: binding; conditions: 15°C, read-out: KD (dissociation constant)
T1 construct: isothermal titration calorimetry (ITC) with the fifth bromodomain of PB1 [PB1(5)]; made in house
Method: Experiments were carried out on a VP-ITC microcalorimeter (MicroCal). All experiments were performed at 15°C in 50 mM Hepes (pH 7.5), 150 mM NaCl. The titrations were conducted using an initial injection of 2 μl followed by 34 identical injections of 8 μl. The dilution heats were measured on separate experiments and were subtracted from the titration data. Thermodynamic parameters were calculated using ΔG = ΔH − TΔS = −RTlnKB, where ΔG, ΔH, and ΔS are the changes in free energy, enthalpy, and entropy of binding, respectively. In all cases, a single binding site model was used.

[2] = test system: 48 members of the human BRD family; assay: Thermal shift (ΔTm) selectivity screening; type: binding; conditions: profiled against 48 BRDs; compounds at 10 μM
Method: Thermal melting experiments were carried out using an Mx3005P Real-Time PCR machine (Stratagene). Proteins were buffered in 10 mM Hepes (pH 7.5), 500 mM NaCl, and assayed in a 96-well plate at a final concentration of 2 μM in 20-μl volume. Compounds were added at a final concentration of 10 μM. SYPRO Orange (Molecular Probes) was added as a fluorescence probe at a dilution of 1:1000. Excitation and emission filters for the SYPRO Orange dye were set to 465 and 590 nm, respectively. The temperature was raised with a step of 3°C/min from 25° to 96°C, and fluorescence readings were taken at each interval.

BAF BRDs = assay: Initial library screening for interaction with BAF BRDs; type: binding
[3] = test system: trophoblast stem cells (TSCs); assay: TSC differentiation gene expression (RNA-seq, qRT-PCR); type: cell-based, mouse
Method: Derivation and culture of TSCs were performed as previously described ([34]). Shortly, TSCs were cultured in the absence of feeders in medium supplemented with FGF4 (30 ng/ml; R&D Systems, 235-F4-025/CF), heparin (1.2 μg/ml; Sigma, H3149), and 70% conditional medium (harvested from mitomycin-treated primary mouse embryonic fibroblasts). TSC medium contained RPMI 1640 (BD Biosciences, 354230), 20% ES-qualified fetal bovine serum (Invitrogen), 1% penicillin-streptomycin (Lonza, DE17-602E), 1% L-glutamine (Lonza, BE17-605E), 1% sodium pyruvate (Invitrogen, 11360), and 0.1 mM β-mercaptoethanol. To induce differentiation, TSCs were cultured on feeder-free conditions in TSC medium lacking FGF4 and heparin supplementation.
RNA was isolated as for the ESC samples.
RNA-Seq Library synthesis and analysis were performed at the DKFZ sequencing genomics core facility (Heidelberg, Germany). Mapping and bioinformatics analysis were performed using TopHat, EdgeR Gene-E, and HOMER ([35]–[37]). The raw data from the RNA set results are available through Gene Expression Omnibus (GEO) (accession no. GSE65358). Each replicate represents at least 12 million reads, a density sufficient for qualitative analysis of gene expression. The reads were aligned to the mm10 mouse genome, allowing a mismatch of 2%. We used WebGestalt to find affected pathways ([38]).

[4] = test system: embryonic stem cells (CRG8 ESCs); assay: ESC stemness and differentiation (microscopy, qRT-PCR); type: cell-based
Text: CRG8 ESCs were maintained in serum-containing media supplemented with LIF (1000 U/ml; ESGRO, ESG1106) on feeder-free gelatin-coated wells. ESC culture media contained Dulbecco’s modified Eagle’s medium/knockout (Invitrogen), 15% ES-qualified fetal bovine serum (Invitrogen), 1% penicillin-streptomycin (Lonza, DE17-602E), 1% L-glutamine (Lonza, BE17-605E), 1% sodium pyruvate (Invitrogen, 11360), 1% β-mercaptoethanol, and 1% nonessential amino acids (Invitrogen, 11140). Differentiation of ESCs was induced in the presence of retinoic acid (Sigma, R2625) by withdrawal of LIF supplementation.
qRT-PCR ESC samples were collected by culturing ESC in stemness conditions in the presence of 1 μM PF1-3 or control compound for 1 or 8 days. ESC-differentiated samples were collected by treating the cells with PF1-3 or control compound 24 hours before differentiation induction. RNA was isolated using RNeasy Mini Kit (Qiagen, 74106) following the manufacturer’s instructions. At least two samples were collected for each group, and each qRT-PCR was run in triplicates. The qRT-PCR data were normalized against the housekeeping genes Gapdh, Ppia, and Hprt and expressed against control compound–treated ESC in stemness conditions. A list of primers is compiled in tables S5 and S6.

[5] = test system: 102 cellular receptors as well as 30 enzyme assays; assay: Commercial CEREP screening panel
[6] = Stability in aqueous solution; type: physicochemical; conditions: 37°C, read-out: Half-life in aqueous solutions
[7] = target: T2, full-length GFP-tagged BRM in U2OS cells (Homo sapiens, UniProt P51531); assay: Fluorescence recovery after photobleaching (FRAP); type: cell-based
T2 construct: constructs encoding GFP fused to the N terminus of full-length BRM; expressed in transfected cells; host or cells: U2OS
Method: FRAP studies were performed using a protocol modified from previous studies ([24]). In brief, U2OS cells were transfected (FuGENE HD, Roche) with mammalian overexpression constructs encoding GFP fused to the N terminus of full-length BRM. The FRAP and imaging system consisted of a Zeiss LSM 710 laser scanning and control system coupled to an inverted Zeiss Axio Observer.Z1 microscope equipped with a high numerical aperture (1.3) 40× oil immersion objective. Samples were placed in an incubator chamber capable of maintaining temperature and humidity. […] Once an initial scan had been taken, a region of interest corresponding to about 50% of the entire GFP-positive nucleus was empirically selected for bleaching. A time-lapse series was then taken to record GFP recovery using 1% of the power used for bleaching. The image data sets and fluorescence recovery data were exported from ZEN 2009, the microscope control software, into Microsoft Excel to determine the average half-time for full recovery for 10 to 20 cells per treatment point.

[8] = test system: NCI-60 panel of tumor cell lines; assay: NCI-60 cell proliferation and survival; type: cell-based; conditions: 10 μM inhibitor
supercoiled pBR322 DNA = assay: DNA unwinding assay; conditions: 1, 5, or 10 μM
Method: DNA incubated with DMSO (Sigma-Aldrich; D8418) in the presence or absence of the enzyme was run as control. After extraction by butanol (Sigma-Aldrich; 281549) and chloroform/isoamyl alcohol 24:1 (Sigma-Aldrich; C0549), the DNA was run in a 1% (w/v) agarose gel (Web Scientific; AGR-500) with a 1-kb DNA ladder (Life Technologies; 10787) for 4 hours at 80 V. The gel was then stained with SYBR Safe for 30 min before ultraviolet visualization (UVP; BioDoc-It Imaging System).

[9] = test system: H3K27me3 at Brg1 and Stat3 target genes in ESCs; assay: ChIP of H3K27me3 in ESCs; type: cell-based; conditions: promoters and TSSs, vs PFI-3oMet
Method: ChIP experiments were carried out with Covaris truChIP chromatin shearing reagent according to the manufacturer’s instructions with certain modifications. ESCs were fixed on-plate with 1% formaldehyde in phosphate-buffered saline for 5 min. Cells (10 million) were resuspended in 1 ml of shearing buffer and sonicated (Covaris S220) for 200 cycles per burst, 140 W peak power, 5% duty factor for 15 min in 1-ml Covaris tubes. The supernatant was then diluted to a protein concentration of 1.7 mg ml^−1, and 350 to 500 μg of protein were used for each immunoprecipitation reaction with anti-H3K27me3 (pab-069-050, Diagenode). The targeted gene fragments were amplified with primers used by Ho et al. ([27]).

[10] = 4 days of differentiation, vs control compound

T2 sequence (P51531 whole entry, the tested form may be a part): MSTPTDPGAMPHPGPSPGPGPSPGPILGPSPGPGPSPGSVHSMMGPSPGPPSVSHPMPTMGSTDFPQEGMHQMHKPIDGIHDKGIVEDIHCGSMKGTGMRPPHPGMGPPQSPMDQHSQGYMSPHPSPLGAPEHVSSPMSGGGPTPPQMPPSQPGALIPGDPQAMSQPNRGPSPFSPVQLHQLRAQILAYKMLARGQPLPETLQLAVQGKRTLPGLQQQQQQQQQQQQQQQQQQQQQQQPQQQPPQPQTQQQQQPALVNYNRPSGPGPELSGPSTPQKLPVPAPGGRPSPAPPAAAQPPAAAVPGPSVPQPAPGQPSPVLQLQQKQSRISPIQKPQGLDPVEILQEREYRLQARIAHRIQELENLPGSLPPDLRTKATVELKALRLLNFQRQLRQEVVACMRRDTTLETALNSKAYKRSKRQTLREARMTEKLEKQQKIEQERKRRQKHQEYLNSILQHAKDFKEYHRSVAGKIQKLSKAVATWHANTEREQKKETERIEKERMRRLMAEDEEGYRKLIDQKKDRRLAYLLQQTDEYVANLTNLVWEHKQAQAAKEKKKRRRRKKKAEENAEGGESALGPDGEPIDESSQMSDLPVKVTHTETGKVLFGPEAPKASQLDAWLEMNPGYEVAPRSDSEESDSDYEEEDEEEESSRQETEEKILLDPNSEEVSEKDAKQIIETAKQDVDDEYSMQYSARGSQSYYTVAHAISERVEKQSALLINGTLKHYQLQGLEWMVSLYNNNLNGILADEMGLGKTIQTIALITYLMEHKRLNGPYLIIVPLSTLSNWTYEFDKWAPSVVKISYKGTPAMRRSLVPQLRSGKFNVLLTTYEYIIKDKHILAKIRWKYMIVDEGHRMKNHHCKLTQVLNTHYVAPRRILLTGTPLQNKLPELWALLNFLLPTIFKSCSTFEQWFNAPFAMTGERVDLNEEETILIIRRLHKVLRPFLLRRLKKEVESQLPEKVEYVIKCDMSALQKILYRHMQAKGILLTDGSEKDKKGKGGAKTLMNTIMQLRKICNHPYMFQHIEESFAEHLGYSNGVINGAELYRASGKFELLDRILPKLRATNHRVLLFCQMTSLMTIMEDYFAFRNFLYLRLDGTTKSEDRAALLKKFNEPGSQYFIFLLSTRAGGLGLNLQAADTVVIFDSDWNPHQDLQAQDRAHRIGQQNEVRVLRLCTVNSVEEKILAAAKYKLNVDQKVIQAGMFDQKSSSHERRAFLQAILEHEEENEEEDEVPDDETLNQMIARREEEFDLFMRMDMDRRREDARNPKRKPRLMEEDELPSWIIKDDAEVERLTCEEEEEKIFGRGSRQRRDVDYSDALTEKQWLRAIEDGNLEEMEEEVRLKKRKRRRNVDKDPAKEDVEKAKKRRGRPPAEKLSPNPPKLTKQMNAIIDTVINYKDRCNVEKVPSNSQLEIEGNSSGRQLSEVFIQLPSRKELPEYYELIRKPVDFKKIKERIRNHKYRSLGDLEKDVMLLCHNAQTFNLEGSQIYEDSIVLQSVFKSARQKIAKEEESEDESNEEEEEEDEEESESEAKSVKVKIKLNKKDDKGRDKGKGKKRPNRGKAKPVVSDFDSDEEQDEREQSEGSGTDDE
T1 sequence (Q86U86 653-763 limits assumed): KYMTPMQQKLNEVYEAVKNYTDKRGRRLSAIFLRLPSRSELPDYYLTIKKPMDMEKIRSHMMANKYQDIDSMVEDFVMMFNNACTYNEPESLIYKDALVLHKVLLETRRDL

SMILES: O=C(O)c1ccccc1O [SA, salicylic acid]
- Kd [1]: 250 µM
- Selectivity in temperature shift (ΔTm) assay [2]: good selectivity for BRDs present in BRG1/BRM and PB1

SMILES: CCOC(=O)Nc1cc(-c2ccc(C)c(NS(C)(=O)=O)c2)nn2c(C)nnc12 [bromosporine]
- Binding to BAF BRDs (BAF BRDs): did not exhibit any binding

SMILES: O=C(/C=C/N1C[C@H]2C[C@@H]1CN2c1ccccn1)c1ccccc1O [PFI-3, (E)-1-(2-hydroxyphenyl)-3-((1R,4R)-5-(pyridin-2-yl)-2,5-diazabicyclo[2.2.1]heptan-2-yl)prop-2-en-1-one]
- Transcription of TSC differentiation markers (Prl3d1, Tpbpa) ([3]; 2 μM, differentiation (D4), qRT-PCR): marked increase
- Levels of Eomes, Brg1, Brm, and Pbrm1/Baf180 ([3]; qRT-PCR): not affected
- Prl7d1 and Tpbpa transcription after washout ([3]; washout of the inhibitor during differentiation): could still be observed after washout of the inhibitor during differentiation of TSCs albeit to a lesser extent
- Transcription of stemness genes ([4]; 1 μM, 1 and 8 days, qRT-PCR): initial up- and subsequent down-regulation of stemness genes
- Morphological differentiation of ESCs ([4]; 1 μM, 8 days, stemness-maintaining conditions (LIF), vs PFI-3oMet): led to visible differentiation
- Gata4 expression [4, 10]: not significantly altered
- Nes expression [4, 10]: increased
- T (brachyury homolog) transcription [4, 10]: at the expense of the brachyury homolog T transcription
- Interactions in CEREP panel [5]: only interactions against four GPCRs (G protein–coupled receptor) with micromolar affinity
- half-life [6]: > 168 h
- Half-recovery time of wild-type GFP-BRM (FRAP) ([7]; 2.5 μM SAHA, compound exposure 1 hour): significantly accelerated the half-recovery time
- Ability to displace BRM from chromatin after 24 hours ([7]; exposure 24 hours, 37°C): did not show any loss
- Toxicity (cell proliferation and survival) [8]: did not result in significant toxicity for any of the cell lines tested
- DNA intercalation (supercoiled pBR322 DNA): did not intercalate into DNA
- H3K27me3 at Brg1 and Stat3 binding sites [9]: increase of H3K27me3
